Measured values published in patent publication US20150209335A1, “METHODS AND SMALL MOLECULE THERAPEUTICS COMPRISING FUSED ELPS” (UNIVERSITY OF SOUTHERN CALIFORNIA, priority 2012, published 2015).

B1: I48S48: ELP diblock copolymer (Val-Pro-Gly-Ile-Gly)48(Val-Pro-Gly-Ser-Gly)48 (SEQ ID NO: 12), forms nanoparticles (protein)
chain: VPGIGVPGIGVPGIGVPGIGVPGIGVPGIGVPGIGVPGIGVPGIGVPGIGVPGIGVPGIGVPGIGVPGIGVPGIGVPGIGVPGIGVPGIGVPGIGVPGIGVPGIGVPGIGVPGIGVPGIGVPGIGVPGIGVPGIGVPGIGVPGIGVPGIGVPGIGVPGIGVPGIGVPGIGVPGIGVPGIGVPGIGVPGIGVPGIGVPGIGVPGIGVPGIGVPGIGVPGIGVPGIGVPGIGVPGIGVPGIGVPGSGVPGSGVPGSGVPGSGVPGSGVPGSGVPGSGVPGSGVPGSGVPGSGVPGSGVPGSGVPGSGVPGSGVPGSGVPGSGVPGSGVPGSGVPGSGVPGSGVPGSGVPGSGVPGSGVPGSGVPGSGVPGSGVPGSGVPGSGVPGSGVPGSGVPGSGVPGSGVPGSGVPGSGVPGSGVPGSGVPGSGVPGSGVPGSGVPGSGVPGSGVPGSGVPGSGVPGSGVPGSGVPGSGVPGSGVPGSG
B2: F24S24: ELP diblock copolymer (Val-Pro-Gly-Phe-Gly)24(Val-Pro-Gly-Ser-Gly)24 (SEQ ID NO: 13), forms nanoparticles (protein)
chain: VPGFGVPGFGVPGFGVPGFGVPGFGVPGFGVPGFGVPGFGVPGFGVPGFGVPGFGVPGFGVPGFGVPGFGVPGFGVPGFGVPGFGVPGFGVPGFGVPGFGVPGFGVPGFGVPGFGVPGFGVPGSGVPGSGVPGSGVPGSGVPGSGVPGSGVPGSGVPGSGVPGSGVPGSGVPGSGVPGSGVPGSGVPGSGVPGSGVPGSGVPGSGVPGSGVPGSGVPGSGVPGSGVPGSGVPGSGVPGSG

Tests used:
[1] = in vivo; cited from earlier work
[2] = tested on: MDA-MB-468 rapamycin sensitive breast cancer cell line; assay: MTS cell viability assay, MDA-MB-468; type: cell-based; details: MDA-MB-468 cell assay
Method: Each mouse was injected with 3×10^6 MDA-MB-468 cells s.c. in mammary fat pads. […] 3 times a week. […] Therefore, the dose was reduced to only once a week.

[3] = tested on: interferon gamma (IFN gamma); assay: interferon gamma expression in NOD mouse lacrimal gland, real time RT-PCR; type: in vivo; details: NOD mice, 7-day treatment period
From the text: Quantitation was achieved using real time RT-PCR. Expression of IFN-gamma was quantified after a 7-day treatment period with PBS, Free Rapa, and FSI Rapa.

[4] = toxicity and body weight in the MDA-MB-468 xenograft mouse study; details: after first 2 doses, dosed 3 times a week
From the text: 3 times a week. […] Therefore, the dose was reduced to only once a week.

[5] = tested on: lymphocytic infiltration of the lacrimal gland; assay: lymphocytic infiltration of the lacrimal gland in male NOD mice (autoimmune dacryoadenitis); type: in vivo, mouse; details: 12 week old male NOD mice, tail vein, one week of treatment
From the text: The bottom panel is image analysis that was used to quantify % of tissue section containing lymphocyte foci. *p=0.003, **P=5×10·5, ***P=0.01, ****P=0.0009.

[6] = Rapa encapsulation and release from ELP nanoparticles, dialysis under sink conditions, RP-HPLC; type: physicochemical; details: preliminary experiments
Method: Dialysis under sink conditions was used track the loss of Rapa from the nanoparticles. Mean±SD (n=3).
A two phase method was developed to encapsulate Rapa into the ELP nanoparticles. An aqueous phase PBS containing S48I48 or FKBP-S48I48 was mixed with an organic phase hexane/EtOH containing Rapa in a small glass vial. The vial was kept stirred and heated up to the CMT of S48I48 or FKBP-S48I48. A nitrogen flow was applied to facilitate the evaporation of the hexane/EtOH phase. A 13.2K 10 min centrifugation was performed to remove the insoluble Rapa after the organic phase evaporated out. 100 μL of the sample was filtered and injected into a C-18 reverse phase HPLC column to analyze the amount of the Rapa that was initially encapsulated. Rapa releasing experiment was performed under a sink condition of H2O dialysis. Samples were collected in the dialysis cassette at time points of 0 h, 1 h, 2 h, 4 h, 6 h, 9 h, 19.5 h, 27 h, 31 h and 48 h. RP-HPLC was used to determine the amount of Rapa that was retained inside the ELP nanoparticle core.

[7] = dynamic light scattering (DLS) size of ELP nanoparticles; type: physicochemical; details: concentration of 25 uM
From the text: ELP diblock copolymers with hydrophobic and hydrophilic guest residues at opposite ends of the polymer (e.g. (Val-Pro-Gly-Ile-Gly) 48(Val-Pro-Gly-Ser-Gly)48 (SEQ ID NO: 12) called I48S48) can form nanoparticles. A class of ELP block copolymers with hydrophobic block:hydrophilic block=1:1 have been confirmed to form different sizes of stable nanoparticles. For instances, (Val-Pro-Gly-Ile-Gly)48(Val-Pro-Gly-Ser-Gly)48 (SEQ ID NO: 12) short name: 148S48; (Val-Pro-Gly- Phe-Gly)24(Val-Pro-Gly-Ser-Gly)24 (SEQ ID NO: 13)) short name F24S24. Dynamic light scattering (DLS) can be applied to measure the size of ELP nanoparticles. At concentration of 25 uM, ELP block copolymer 148S48 forms 24 nm in radius nanoparticles; however, F24S24 forms nanoparticles with 15 nm hydrodynamic radius. In order to actually observe the morphology of ELP nanoparticles, transmission electron microscopy (TEM) and cryo-transmission electron microscopy (Cryo-TEM) can be applied. In TEM, 1% of Uranyl acetate solution is used to negatively stain ELP nanoparticles. Therefore, ELP nanoparticles are expected to be observed as hollow spheres. Different from TEM in which ELP samples are loaded on a grid and dry at room temperature. Cryo-TEM studies ELP samples at cryogenic temperatures, generally liquid nitrogen temperatures. […]

| Molecule | bioavailability of the plain drug [1] | rapamycin dose (concentration) that could be reached [2] | IFN gamma expression in lacrimal gland [3] | body weight lost [4] | lymphocytic infiltration (lymphocyte foci) of lacrimal gland [5] | rapamycin encapsulation into plain ELP nanoparticles [6] | nanoparticle hydrodynamic radius [7] |
| --- | --- | --- | --- | --- | --- | --- | --- |
| CO[C@H]1C[C@@H]2CC[C@@H](C)[C@@](O)(O2)C(=O)C(=O)N2CCCC[C@H]2C(=O)O[C@H]([C@H](C)C[C@@H]2CC[C@@H](O)[C@H](OC)C2)CC(=O)[C@H](C)/C=C(\C)[C@@H](O)[C@@H](OC)C(=O)[C@H](C)C[C@H](C)/C=C/C=C/C=C/1C [rapamycin, (3S,6R,7E,9R,10R,12R,14S,15E,17E,19E,21S,23S,26R,27R,34aS)-9,10,12,13,14,21,22,23,24,25,26,27,32,33,34,34a-hexadecahydro-9,27-dihydroxy-3-[(1R)-2-[(1S,3R,4R)-4-hydroxy-3-methoxycyclohexyl]-1-methylethyl]-10,21-dimethoxy-6,8,12,14,20,26-hexamethyl-23,27-epoxy-3H-pyrido[2,1-c][1,4]-oxaazacyclohentriacontine-1,5,11,28,29 (4H,6H,31H)-pentone] | less than 20% | could not reach such a high rapamycin concentration | sizeable reduction | about 10% | less lymphocyte invasion |  |  |
| B1 |  |  |  |  |  | efficiently encapsulated | 24 nm |
| B2 |  |  |  |  |  | efficiently encapsulated | 15 nm |
